Several values for one entry are separate records, joined by “and”; a condition that tells them apart may be missing. Equal entries are not always repeated. Toxic doses and inconclusive results are not listed. No stated cut-off is given here; in the data, active means T/C of 150% or more; inactive means T/C below 125%.
Tested on: L1210 leukemia ip in BDF1 mice, survival T/C
Test: NCI In Vivo Anticancer Drug Screen. Data for tumor model L1210 Leukemia (intraperitoneal) in B6D2F1 (BDF1) mice
Conditions: endpoint: mean survival time, higher = longer survival
Outline: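 Each compound was tested against a transplantable tumor grown in mice. The endpoint was survival, with treated animals benchmarked against vehicle controls as a simple ratio.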

[1] = dose: 50.0 mg/kg/injection, schedule: Q04DX003 (ip), vehicle: Klucel (hydroxypropylcellulose) (HPC)
[2] = dose: 100.0 mg/kg/injection, schedule: Q04DX003 (ip), vehicle: Klucel (hydroxypropylcellulose) (HPC)
[3] = dose: 100.0 mg/kg/injection, schedule: Q01DX009 (ip), vehicle: saline with Tween-80
[4] = dose: 100.0 mg/kg/injection, schedule: Q04DX003 (ip), vehicle: saline with Tween-80
[5] = dose: 200.0 mg/kg/injection, schedule: Q01DX009 (ip), vehicle: saline with Tween-80
[6] = dose: 200.0 mg/kg/injection, schedule: Q04DX003 (ip), vehicle: saline with Tween-80
[7] = dose: 400.0 mg/kg/injection, schedule: Q01DX009 (ip), vehicle: saline with Tween-80
[8] = dose: 200.0 mg/kg/injection, schedule: Q04DX003 (ip), vehicle: Klucel (hydroxypropylcellulose) (HPC)
[9] = dose: 400.0 mg/kg/injection, schedule: Q04DX003 (ip), vehicle: Klucel (hydroxypropylcellulose) (HPC)
[10] = dose: 100.0 mg/kg/injection, schedule: Q01DX001 (ip), vehicle: saline with Tween-80
[11] = dose: 200.0 mg/kg/injection, schedule: Q01DX001 (ip), vehicle: saline with Tween-80
[12] = dose: 400.0 mg/kg/injection, schedule: Q01DX001 (ip), vehicle: saline with Tween-80
[13] = dose: 100.0 mg/kg/injection, schedule: Q01DX009 (ip), vehicle: Klucel (hydroxypropylcellulose) (HPC)
[14] = dose: 75.0 mg/kg/injection, schedule: Q01DX001 (ip), vehicle: saline

Measured: T/C

CCCCCCCc1cc2ccccc2c2c(N)nc(N)nc12
inactive: dose: 12.0 mg/kg/injection, schedule: Q04DX003 (ip), vehicle: Klucel (hydroxypropylcellulose) (HPC) 105 % of control | dose: 25.0 mg/kg/injection, schedule: Q04DX003 (ip), vehicle: Klucel (hydroxypropylcellulose) (HPC) 93 % of control | [1] 98 % of control | dose: 100.0 mg/kg/injection, schedule: Q01DX001 (ip), vehicle: Klucel (hydroxypropylcellulose) (HPC) 90 % of control | [2] 107 % of control | dose: 200.0 mg/kg/injection, schedule: Q01DX001 (ip), vehicle: Klucel (hydroxypropylcellulose) (HPC) 96 % of control

CCOC(=O)c1cc(N)c(N2CCCC2)cc1Cl
inactive: [3] 109 % of control | [4] 93 % of control | [5] 98 % of control | [6] 93 % of control | [7] 95 % of control | dose: 400.0 mg/kg/injection, schedule: Q04DX003 (ip), vehicle: saline with Tween-80 93 % of control

CC(CCC(C)C(=O)O)C(=O)O (stereo unspecified)
inactive: [3] 103 % of control | [5] 102 % of control | [7] 103 % of control

CC(=O)OCC(=O)[C@@]1(O)CC[C@H]2[C@@H]3C[C@H](F)C4=CC(=O)CC[C@]4(C)[C@H]3C(=O)C[C@@]21C
inactive: dose: 0.78 mg/kg/injection, schedule: Q01DX005 (ip), vehicle: saline 102 % of control | dose: 1.56 mg/kg/injection, schedule: Q01DX005 (ip), vehicle: saline 102 % of control | dose: 3.12 mg/kg/injection, schedule: Q01DX005 (ip), vehicle: saline 104 % of control | dose: 100.0 mg/kg/injection, schedule: Q01DX001 (sc), vehicle: steriod suspending solution 96 % of control | dose: 200.0 mg/kg/injection, schedule: Q01DX001 (sc), vehicle: steriod suspending solution 104 % of control | dose: 400.0 mg/kg/injection, schedule: Q01DX001 (sc), vehicle: steriod suspending solution 102 % of control

CC(=O)OCC1OC(COC(C)=O)(c2ccc(C)cc2)C(OC(C)=O)C1OC(C)=O (stereo unspecified)
inactive: dose: 50.0 mg/kg/injection, schedule: Q01DX001 (ip), vehicle: saline 97 % of control | dose: 100.0 mg/kg/injection, schedule: Q01DX001 (ip), vehicle: saline 103 % of control | dose: 200.0 mg/kg/injection, schedule: Q01DX001 (ip), vehicle: saline 94 % of control | dose: 400.0 mg/kg/injection, schedule: Q01DX001 (ip), vehicle: saline 100 % of control

O=C1C(c2ccccc2)=C(c2ccccc2)C2(c3ccccc3)CN=NC12c1ccccc1 (stereo unspecified)
inactive: [2] 90 % of control | [8] 94 % of control | [9] 92 % of control

O=c1cc(NCc2cccc(Cl)c2)[nH]c(=O)[nH]1
inactive: [10] 91 % of control | [11] 86 % of control | [12] 89 % of control

O=C1NCCCC1c1nc2cccc3c2n1CCC3 (stereo unspecified)
inactive: [2] 94 % of control | [8] 108 % of control | [9] 97 % of control

CN(N=O)C(=O)Nc1ccccc1
inactive: dose: 6.25 mg/kg/injection, schedule: Q01DX Z (ip), vehicle: carboxymethylcellulose (CMC) 104 % of control | dose: 12.5 mg/kg/injection, schedule: Q01DX Z (ip), vehicle: carboxymethylcellulose (CMC) 112 % of control | dose: 25.0 mg/kg/injection, schedule: Q01DX Z (ip), vehicle: carboxymethylcellulose (CMC) 112 % of control | dose: 50.0 mg/kg/injection, schedule: Q01DX Z (ip), vehicle: carboxymethylcellulose (CMC) 122 % of control | dose: 100.0 mg/kg/injection, schedule: Q01DX Z (ip), vehicle: carboxymethylcellulose (CMC) 91 % of control | dose: 150.0 mg/kg/injection, schedule: Q01DX001 (ip), vehicle: carboxymethylcellulose (CMC) 112 % of control | dose: 600.0 mg/kg/injection, schedule: Q01DX001 (ip), vehicle: carboxymethylcellulose (CMC) 117 % of control

CCCCSP(Oc1ccccc1)SCCCC
inactive: [13] 89 % of control

Nc1ccnc2snnc12
inactive: dose: 50.0 mg/kg/injection, schedule: Q01DX009 (ip), vehicle: saline with Tween-80 96 % of control | dose: 50.0 mg/kg/injection, schedule: Q04DX003 (ip), vehicle: saline with Tween-80 93 % of control | [10] 111 % of control | [3] 90 % of control | [4] 102 % of control | [11] 98 % of control | [5] 95 % of control | [6] 107 % of control

O=C(CBr)c1cccc2c1Nc1ccccc1S2
inactive: [14] 98 % of control

C/C=C1\SC(=S)NC1=O
inactive: dose: 20.0 mg/kg/injection, schedule: Q01DX001 (ip), vehicle: other 100 % of control | dose: 40.0 mg/kg/injection, schedule: Q01DX001 (ip), vehicle: other 100 % of control | dose: 80.0 mg/kg/injection, schedule: Q01DX001 (ip), vehicle: other 101 % of control

C[N+]1(C2CC3CCC2C3=O)CCOCC1 (stereo unspecified)
inactive: [14] 97 % of control | dose: 150.0 mg/kg/injection, schedule: Q01DX001 (ip), vehicle: saline 98 % of control

O=[N+]([O-])c1cccc(C=Nc2ccc(CCC3(CCl)OCCO3)cc2)c1
inactive: dose: 100.0 mg/kg/injection, schedule: Q01DX001 (ip), vehicle: gum acacia 96 % of control | dose: 200.0 mg/kg/injection, schedule: Q01DX001 (ip), vehicle: gum acacia 98 % of control | dose: 400.0 mg/kg/injection, schedule: Q01DX001 (ip), vehicle: gum acacia 98 % of control

CCCCCCCCCCCCCCCCCCOc1ccccc1
inactive: dose: 100.0 mg/kg/injection, schedule: Q01DX009 (sc), vehicle: olive oil, sesame oil, peanut oil 94 % of control | dose: 100.0 mg/kg/injection, schedule: Q04DX003 (sc), vehicle: olive oil, sesame oil, peanut oil 95 % of control | dose: 200.0 mg/kg/injection, schedule: Q01DX009 (sc), vehicle: olive oil, sesame oil, peanut oil 99 % of control | dose: 200.0 mg/kg/injection, schedule: Q04DX003 (sc), vehicle: olive oil, sesame oil, peanut oil 101 % of control | dose: 400.0 mg/kg/injection, schedule: Q01DX009 (sc), vehicle: olive oil, sesame oil, peanut oil 94 % of control | dose: 400.0 mg/kg/injection, schedule: Q04DX003 (sc), vehicle: olive oil, sesame oil, peanut oil 108 % of control

CCOC(=Nc1ccccc1)c1ccccc1
inactive: [13] 104 % of control | dose: 200.0 mg/kg/injection, schedule: Q01DX009 (ip), vehicle: Klucel (hydroxypropylcellulose) (HPC) 100 % of control | dose: 400.0 mg/kg/injection, schedule: Q01DX009 (ip), vehicle: Klucel (hydroxypropylcellulose) (HPC) 102 % of control

CCOC(=O)N1CCc2nc3ccc(Cl)cc3cc21
inactive: [10] 95 % of control | [3] 104 % of control | [11] 93 % of control | [5] 110 % of control | [12] 98 % of control | [7] 106 % of control

CCOC(=O)OCCc1ccccc1
inactive: dose: 100.0 mg/kg/injection, schedule: Q01DX001 (ip), vehicle: carboxymethylcellulose (CMC) 106 % of control | dose: 100.0 mg/kg/injection, schedule: Q01DX009 (ip), vehicle: carboxymethylcellulose (CMC) 103 % of control and 92 % of control | dose: 100.0 mg/kg/injection, schedule: Q04DX002 (ip), vehicle: carboxymethylcellulose (CMC) 97 % of control and 109 % of control | dose: 100.0 mg/kg/injection, schedule: Q04DX003 (ip), vehicle: carboxymethylcellulose (CMC) 98 % of control | dose: 200.0 mg/kg/injection, schedule: Q01DX001 (ip), vehicle: carboxymethylcellulose (CMC) 100 % of control | dose: 200.0 mg/kg/injection, schedule: Q01DX009 (ip), vehicle: carboxymethylcellulose (CMC) 95 % of control and 103 % of control | dose: 200.0 mg/kg/injection, schedule: Q04DX002 (ip), vehicle: carboxymethylcellulose (CMC) 98 % of control and 100 % of control | dose: 200.0 mg/kg/injection, schedule: Q04DX003 (ip), vehicle: carboxymethylcellulose (CMC) 98 % of control | dose: 400.0 mg/kg/injection, schedule: Q01DX001 (ip), vehicle: carboxymethylcellulose (CMC) 105 % of control | dose: 400.0 mg/kg/injection, schedule: Q01DX009 (ip), vehicle: carboxymethylcellulose (CMC) 93 % of control and 98 % of control | dose: 400.0 mg/kg/injection, schedule: Q04DX002 (ip), vehicle: carboxymethylcellulose (CMC) 97 % of control and 106 % of control | dose: 400.0 mg/kg/injection, schedule: Q04DX003 (ip), vehicle: carboxymethylcellulose (CMC) 102 % of control

O=S(=O)(O)n1nc2ccccc2c1-c1ccccc1
inactive: dose: 100.0 mg/kg/injection, schedule: Q04DX002 (ip), vehicle: saline with Tween-80 96 % of control | dose: 200.0 mg/kg/injection, schedule: Q04DX002 (ip), vehicle: saline with Tween-80 96 % of control

O=S1(=O)N=C(Cl)c2ccccc21
inactive: [1] 105 % of control | [2] 108 % of control | [8] 97 % of control

From PubChem BioAssay AID248 (DTP/NCI, 2004)
